Data: BindingDB's records for patent US20240376090 (Arena Pharmaceuticals, 2024)
pKi: −log10 of the molar value.

Target: 5-hydroxytryptamine receptor 2A (Homo sapiens, UniProt P28223)
Experiment: Radioligand Binding Assay Protocol
Method: Competition binding experiments consisted of addition of 5 μL of serially diluted test compound, 50 μL of radioligand stock diluted in Assay Buffer (20 mM HEPES, pH 7.4, 10 mM MgCl2), and 145 μL of diluted membrane expressing the receptor of interest to 96-well microtiter plates, which were then incubated for one hour at room temperature. Assay incubations were terminated by rapid filtration through Perkin Elmer GF/C filtration plates under vacuum pressure using a 96-well Packard filtration apparatus, followed by washing the filter plates several times with ice cold Assay Buffer. Plates were then dried at 45° C. for a minimum of four hours. Finally, 25 μL of BetaScint scintillation cocktail was added to each well and the plates were counted in a Packard TopCount scintillation counter. In each competition study, test compounds were assayed at 10 concentrations with three replicates at each test concentration.

Chain of 5-hydroxytryptamine receptor 2A (P28223 whole entry): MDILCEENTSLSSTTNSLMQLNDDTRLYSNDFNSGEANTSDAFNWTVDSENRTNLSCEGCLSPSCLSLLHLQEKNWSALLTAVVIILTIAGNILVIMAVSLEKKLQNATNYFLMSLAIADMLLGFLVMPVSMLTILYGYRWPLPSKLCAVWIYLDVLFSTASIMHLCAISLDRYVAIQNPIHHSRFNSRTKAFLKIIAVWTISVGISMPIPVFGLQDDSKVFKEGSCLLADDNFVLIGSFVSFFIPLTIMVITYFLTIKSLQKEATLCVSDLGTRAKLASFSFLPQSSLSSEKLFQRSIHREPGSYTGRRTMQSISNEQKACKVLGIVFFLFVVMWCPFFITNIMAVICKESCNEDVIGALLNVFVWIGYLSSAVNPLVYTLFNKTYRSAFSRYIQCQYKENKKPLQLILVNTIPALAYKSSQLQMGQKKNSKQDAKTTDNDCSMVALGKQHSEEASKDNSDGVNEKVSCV

CC/C(=C(/C)ON)c1cc(NC(=O)C[C@H]2CCOC2)ccc1OC[C@H]1CCCCN1 [US20240376090, Compound 202]
pKi: 8.01
